These results are taken from ChEMBL document CHEMBL6074684, “Structure-activity relationship study of novel evodiamine amino acid conjugates with potent anti-colorectal cancer efficacy” (Eur J Med Chem, 2025).

Data set [1] is described as follows: Toxicity in male BALB/c nude mouse xenografted with human HT-29 cells assessed as body weight loss at 0.5 mg/kg, ip administered once daily for 14 days. The data set is classed as organism-based. Particulars: in vivo, 336 h, time 14 day.
Data set [2] deals with LoVo. The experiment in a line: Antitumor activity against human LoVo cells xenografted in male BALB/c nude mouse assessed as tumor growth inhibition at 0.5 mg/kg, ip administered once daily for 14 days. The data set is classed as functional, organism-based. Particulars: time 14.0 day.
Data set [3] can be described thus: Toxicity in male BALB/c nude mouse xenografted with human LoVo cells assessed as animal death at 0.5 mg/kg, ip administered once daily for 14 days. The data set is classed as organism-based. The settings on record: in vivo, 336 h, time 14 day.
A short description of data set [4]: Toxicity in male BALB/c nude mouse xenografted with human LoVo cells assessed as body weight loss at 0.5 mg/kg, ip administered once daily for 14 days. Format: organism-based. Particulars: in vivo, 336 h, time 14 day.
For data set [5], the system named is HT-29. The data set is described as follows: Antitumor activity against human HT-29 cells xenografted in male BALB/c nude mouse assessed as tumor growth inhibition at 0.5 mg/kg, ip administered once daily for 14 days relative to control. The data set is classed as functional. The settings on record: HT-29, 336 h, time 14 day, read-out: TGI.
The nature of data set [6]: Toxicity in male BALB/c nude mouse xenografted with human HT-29 cells assessed as animal death at 0.5 mg/kg, ip administered once daily for 14 days. Particulars: in vivo, 336 h, time 14 day. The data set is classed as organism-based.
The test system of data set [7] is LoVo. The data set is described as follows: Cell cycle arrest in human LoVo cells assessed as accumulation of cells at S phase cells at 90 nM incubated for 24 hrs by […]PI staining based flow cytometric analysis (reference value: 54.99 %). Format: functional.
The test system of data set [8] is Mitochondrial membrane. The data set is described as follows: Induction of mitochondrial membrane potential loss in human LoVo cells assessed as decrease in TMRE positive cells at 90 nM incubated for 24 hrs by TMRE staining based flow cytometric analysis. Format: cell membranes.
Data set [9] concerns LoVo. The data set is described as follows: Induction of morphological changes in human LoVo cells assessed as appearance of condensed morphology at 90 nM incubated for 24 hrs by Giemsa staining based microscopic analysis. Format: functional, cell-based.
The nature of data set [10]: Toxicity in male BALB/c nude mouse xenografted with human LoVo cells assessed as body weight loss at 40 mg/kg, ip administered once daily for 14 days. Format: organism-based. Particulars: in vivo, 336 h, time 14 day.
The subject of data set [11] is LoVo. The data set is described as follows: Cell cycle arrest in human LoVo cells assessed as accumulation of cells at G1 phase cells at 90 nM incubated for 24 hrs by […]PI staining based flow cytometric analysis (reference value: 29.69 %). The data set is classed as functional.
Data set [12] has as its system LoVo. The data set is described as follows: Antiproliferative activity against human LoVo cells assessed as reduction in cell viability measured after 24 hrs. Format: functional, cell-based. Particulars: dose 40-200 nmol/L.
In data set [13] the test system is LoVo. The experiment in a line: Cell cycle arrest in human LoVo cells assessed as accumulation of cells at G2 phase cells at 90 nM incubated for 24 hrs by […]PI staining based flow cytometric analysis (reference value: 14.84 %). The data set is classed as functional.
Data set [14] relates to RKO. The experiment in a line: Cell cycle arrest in human RKO cells assessed as accumulation of cells at S phase at 90 nM incubated for 24 hrs by […]PI staining based flow cytometric analysis (reference value: 43.36 %). The data set is classed as functional.
Data set [15] has as its system RKO. The data set is described as follows: Antiproliferative activity against human RKO cells assessed as reduction in cell viability measured after 24 hrs. The data set is classed as functional, cell-based. The settings on record: dose 40-200 nmol/L.
Data set [16] concerns LoVo. The data set is described as follows: Induction of morphological changes in human LoVo cells assessed as appearance of contracted nucleus at 90 nM incubated for 24 hrs by Giemsa staining based microscopic analysis. Format: functional, cell-based.
Data set [17] relates to HT-29. The experiment in a line: Antiproliferative activity against human HT-29 cells assessed as inhibition of cell growth incubated for 72 hrs by MTT assay. Format: functional, cell-based. Particulars: HT-29, 72 h.
The subject of data set [18] is RKO. The experiment in a line: Induction of morphological changes in human RKO cells assessed as appearance of condensed morphology at 90 nM incubated for 24 hrs by Giemsa staining based microscopic analysis. Format: functional, cell-based.
Data set [19] relates to LoVo. The data set is described as follows: Antiproliferative activity against human LoVo cells assessed as inhibition of cell growth incubated for 72 hrs by MTT assay. Format: functional, cell-based.
Data set [20] can be described thus: Apparent clearance during terminal phase in male Sprague-Dawley rat at 50 mg/kg, ip measured after 24 hrs by LC-MS/MS analysis. The data set is classed as ADME, organism-based. The settings on record: in vivo, read-out: CLz/F (converted).
The subject of data set [21] is RKO. The data set is described as follows: Cell cycle arrest in human RKO cells assessed as accumulation of cells at G2 phase at 90 nM incubated for 24 hrs by […]PI staining based flow cytometric analysis (reference value: 20.07 %). Format: functional.
The nature of data set [22]: Aqueous solubility of compound by HPLC analysis. Format: physicochemical.
The test system of data set [23] is RKO. The data set is described as follows: Induction of morphological changes in human RKO cells assessed as appearance of contracted nucleus at 90 nM incubated for 24 hrs by Giemsa staining based microscopic analysis. Format: functional, cell-based.
Data set [24] has as its system Mitochondrial membrane. The experiment in a line: Induction of mitochondrial membrane potential loss in human RKO cells assessed as decrease in TMRE positive cells at 90 nM incubated for 24 hrs by TMRE staining based flow cytometric analysis. The data set is classed as cell membranes.
Data set [25] in a line: AUC (0 to t) in male Sprague-Dawley rat at 50 mg/kg, ip measured after 24 hrs by LC-MS/MS analysis. Particulars: in vivo. The data set is classed as ADME, organism-based.
Data set [26] in a line: Cmax in male Sprague-Dawley rat at 50 mg/kg, ip measured after 24 hrs by LC-MS/MS analysis. The data set is classed as ADME, organism-based. The settings on record: in vivo.
For data set [27], the system named is RKO. The experiment in a line: Antiproliferative activity against human RKO cells assessed as inhibition of cell growth incubated for 72 hrs by MTT assay. The data set is classed as functional, cell-based.
Data set [28] concerns RKO. The experiment in a line: Cell cycle arrest in human RKO cells assessed as accumulation of cells at G1 phase at 90 nM incubated for 24 hrs by […]PI staining based flow cytometric analysis (reference value: 35.29 %). The data set is classed as functional.
In data set [29] the test system is LoVo. The experiment in a line: Induction of apoptosis in human LoVo cells assessed as apoptosis rate at 90 nM incubated for 24 hrs by Annexin V/PI staining based flow cytometric analysis (reference value: 4.71 %). The data set is classed as functional.
The nature of data set [30]: Half-life in male Sprague-Dawley rat at 50 mg/kg, ip measured after 24 hrs by LC-MS/MS analysis. The data set is classed as ADME, organism-based. Particulars: in vivo.
Data set [31] concerns RKO. The data set is described as follows: Induction of apoptosis in human RKO cells assessed as apoptosis rate at 90 nM incubated for 24 hrs by Annexin V/PI staining based flow cytometric analysis (reference value: 4.87 %). The data set is classed as functional.
Data set [32] deals with LoVo. The experiment in a line: Antitumor activity against human LoVo cells xenografted in male BALB/c nude mouse assessed as tumor growth inhibition at 40 mg/kg, ip administered once daily for 14 days relative to control. Format: functional. Particulars: 336 h, time 14 day, read-out: TGI.
Data set [33] is described as follows: Tmax in male Sprague-Dawley rat at 50 mg/kg, ip measured after 24 hrs by LC-MS/MS analysis. The data set is classed as ADME, organism-based. Particulars: in vivo.
Data set [34] relates to HCT-116. The experiment in a line: Antiproliferative activity against human […] cells assessed as inhibition of cell growth incubated for 72 hrs by MTT assay. Format: functional, cell-based. Particulars: HCT-116, 72 h.

SMILES strings stand for the structures. ≈ marks a conversion by molar mass, not a printed value. Calls of active or inactive are those of the source. No cut-off for these calls is given here.

With `CC[C@@]1(O)C(=O)OCc2c1cc1n(c2=O)Cc2cc3c(CN(C)C)c(O)ccc3nc2-1` [TOPOTECAN], the Activity result in [1], in data set [3], in data set [4] and in data set [6] was “Toxic” throughout. Moreover, the result in data set [2] was Active. Besides, in data set [5], the inhibition in vivo at 0.5 mg/kg worked out at 70.7%.
Consider `O=C1c2cc(F)ccc2N(c2cccc(F)c2)[C@@H]2c3[nH]c4ccc(O)cc4c3CCN12`, for which the Activity in [7] was 48.04%; in data set [10], “Toxic”; in data set [11], 18.84%; in data set [12], “Dose-dependent-effect”; in [13], 31.88%; in [14], 21.88%. For the same molecule, the Activity entry in data set [15] is “Dose-dependent-effect”; in data set [21] it was 42.34%; in data set [28] it was 35.52%; in data set [29], 25.44%; in data set [31], 13.9%. The result in data set [8], in data set [9], in [16], in data set [18], in [23] and in data set [24] was Active. The IC50 in data set [17] stood at 210 nM; in data set [19] it was 170 nM; in data set [27] it was 130 nM; in [34], 270 nM. Besides, the CL/F in data set [20] is 77.8 mL/min/kg. In addition, the concentration in solution in data set [22] (solubility) came to 3.24 µg/mL (≈ 7.76 µM). In addition, in [25], the AUC(0-t) at 24 h is 4350 ng·h/mL. The highest level in [26] (Cmax) was 2190 ng/mL. The molecule further showed a half-life in data set [30] of 4.18 h. Moreover, in [32], the inhibition in vivo at 40 mg/kg is 51.2%. The Tmax in data set [33] came to 0.5 h.
